Where “and” joins values, the source holds several entries; their conditions need not be identical. Identical values can stand only once.
Test system: Xenopus laevis tadpoles
Experiment: Behavioral test: locomotion of free-swimming tadpoles under light cycles
Type: in vivo
Conditions: for reduction in locomotor activity in the dark vs baseline / Normalized travelled distance by tadpoles (/baseline/control), mean: 5 µM; for reduction in locomotor activity in the dark vs baseline: 45 min incubation; for Normalized travelled distance by tadpoles (/baseline): per well (mean of 3 tadpoles)
Procedure: In our behavioral assay, tadpoles were placed in groups of three animals per well of a 12-well plate allowing them to swim freely. Their baseline locomotion was recorded for 3 min in the dark, after which they were incubated for 45 min in a solution containing either 0.1% DMSO (control) or 5 μM OptoNAM-3 (refer to Methods and Figure S5A for details). For each condition (control and OptoNAM-3), tadpole locomotion was recorded for 3 min in the dark, followed by cycles of 1 min illumination at 365 nm and then 550 nm, and interspersed with 3 min rest periods to avoid bias due to a poststimulation refractory period[51],[56] (Figure S5A). We also conducted the same protocol using 460/550 nm light cycles, as OptoNAM-3 can switch from the trans to cis state upon exposure to blue light at 460 nm when pre-equilibrated on cells (see above). The tadpole traveled distance was calculated from precise position coordinates of tadpole body parts across frames, assessed by automatic position multianimal tracking using the open-source program DeepLabCut.[57],[58]Xenopus laevis tadpoles present nonvisual photoreceptors that generate a photomotor response characterized by an increase of activity upon UV light illumination.[59] We indeed observed an increase in tadpole locomotion with UV and blue light compared to 550 nm light in the control condition (∼1.5-fold, Figures 6A,B and S5B,C, gray points). The photodependent effect of OptoNAM-3 on locomotion was therefore quantified by calculating the traveled distance normalized twice: by the tadpole baseline locomotion (to decrease interindividual variability linked to the locomotion speed) and, for each condition, by the locomotion of the control group (to remove the nonspecific effect of UV or blue light). […] Their locomotion could be restored to baseline activity with UV or blue light and inhibited again by 550 nm light for two cycles (Figure 6C,D and Movies S1 and S2). Consequently, OptoNAM-3 enabled fast and reversible control of tadpole locomotion using light. In addition, the compound red-shifted properties observed in vitro were conserved in vivo. OptoNAM-3 therefore holds great promise to photocontrol native GluN2B-NMDARs with the high biocompatibility of red-shifted photoswitches.[29],[31]
Xenopus laevis embryos were obtained from the European Xenopus Resource Centre (EXRC, Portsmouth, UK) or TEFOR Paris Sackay (Saclay, France), maintained in Modified Barth’s Saline (MBS) 0.1× (pH adjusted to 7.8 with NaOH), and supplemented with 10 μg/mL of gentamicin, in 10 cm Petri dishes with a maximum of 50 tadpoles per dish. The embryos were stored at 18 °C until they reached stage 49 (12–14 days postfertilization).[86] Experiments on Xenopus tadpoles were performed according to European Union guidelines (project authorization Apafis #44976–2023092616413977)
For the experiments (see Figure S5A), stage 49 X. laevis tadpoles were placed in the center of a 12-well plate at a density of three animals per well in 0.1× MBS. The 12-well plate was covered with a 3D-printed dome equipped with a liquid guide (15 cm) connected to a multichannel LED delivery system (CoolLed pE-4000) at the top. The plate was positioned on optical cast plastic infrared filters, which allowed only wavelengths above 650 nm to pass, and red light (770 nm at 15% intensity) was continuously applied during recording to enable video recording in the dark. […] Subsequently, the tadpoles were incubated in the dark for 30 min in a 60 × 15 mm Petri dish containing 5 mL of either the vehicle (0.1% DMSO in MBS 0.1×) or OptoNAM-3 solution (5 μM in MBS 0.1×) to facilitate drug penetration. Afterward, the tadpoles were transferred back to the 12-well plate, which contained either the vehicle solution or OptoNAM-3 (5 μM), and habituation to red light was performed again for 15 min. […]

[1] = Sup. Fig. 5B, UV/green cycles, second data block (c27-c50), raw

With `c1ccc(/N=N/c2ccc(CCNc3ccncc3)cc2)cc1` [OptoNAM-3, (E)-N-(4-(Phenyldiazenyl)phenethyl)pyridin-4-amine] the “reduction in locomotor activity in the dark vs baseline” value (UV/visible cycle protocol group) was 35%, the “reduction in locomotor activity in the dark vs baseline” value (blue/green cycle protocol group) was 50% and the “Normalized travelled distance by tadpoles (/baseline/control), mean” value (Fig 6C, 365 nm (1), UV/green light cycle experiment) was 1.089. The “Normalized travelled distance by tadpoles (/baseline/control), mean” value (Fig 6C, 365 nm (2), UV/green light cycle experiment) was 0.883, the “Normalized travelled distance by tadpoles (/baseline/control), mean” value (Fig 6C, 550 nm (1), UV/green light cycle experiment) was 0.484 and the “Normalized travelled distance by tadpoles (/baseline/control), mean” value (Fig 6C, 550 nm (2), UV/green light cycle experiment) was 0.221. For the same compound, the “Normalized travelled distance by tadpoles (/baseline/control), mean” value (Fig 6C, dark, UV/green light cycle experiment) was 0.649, the “Normalized travelled distance by tadpoles (/baseline/control), mean” value (Fig 6D, 460 nm (1), blue/green light cycle experiment) was 2.548 and the “Normalized travelled distance by tadpoles (/baseline/control), mean” value (Fig 6D, 460 nm (2), blue/green light cycle experiment) was 2.278. For the same compound, the “Normalized travelled distance by tadpoles (/baseline/control), mean” value (Fig 6D, 550 nm (1), blue/green light cycle experiment) was 0.587, the “Normalized travelled distance by tadpoles (/baseline/control), mean” value (Fig 6D, 550 nm (2), blue/green light cycle experiment) was 0.462 and the “Normalized travelled distance by tadpoles (/baseline/control), mean” value (Fig 6D, dark, blue/green light cycle experiment) was 0.509. The “Distance in mm, well mean of 3 tadpoles, uv 1 min” value (Sup. Fig. 5B, UV/green cycles, first data block (c1-c24), raw) was 543.756 mm and 730.486 mm and 588.764 mm and 724.010 mm and 734.699 mm and 651.720 mm and 525.360 mm and 469.552 mm, the “Distance in mm, well mean of 3 tadpoles, green2 1 min” value [1] was 28.734 mm and 47.149 mm and 41.068 mm and 52.900 mm and 46.164 mm and 30.050 mm and 28.925 mm and 43.119 mm and the “Distance in mm, well mean of 3 tadpoles, uv 1 min” value [1] was 636.734 mm and 582.355 mm and 684.728 mm and 679.263 mm and 728.479 mm and 513.366 mm and 700.914 mm and 476.462 mm. For the same compound, the “Normalized travelled distance by tadpoles (/baseline), single well” value (Sup. Fig. 5B, 365 nm (1), individual wells) was 1.393 and 3.082 and 2.491 and 2.557 and 3.849 and 6.596 and 1.808 and 1.431 and 6.280 and 5.411 and 9.003 and 6.422 and 6.492, the “Normalized travelled distance by tadpoles (/baseline), mean” value (Sup. Fig. 5B, 365 nm (1), mean of 16 wells) was 4.878 and the “Normalized travelled distance by tadpoles (/baseline), single well” value (Sup. Fig. 5B, 365 nm (2), individual wells) was 1.002 and 2.077 and 1.181 and 1.514 and 2.542 and 5.415 and 1.765 and 1.460 and 5.497 and 4.718 and 10.726 and 5.196 and 4.515. For the same compound, the “Normalized travelled distance by tadpoles (/baseline), mean” value (Sup. Fig. 5B, 365 nm (2), mean of 16 wells) was 4.635, the “Normalized travelled distance by tadpoles (/baseline), single well” value (Sup. Fig. 5B, 550 nm (1), individual wells) was 0.458 and 1.858 and 0.896 and 0.456 and 0.161 and 0.143 and 0.389 and 0.051 and 0.457 and 0.356 and 0.468 and 0.574 and 0.522 and the “Normalized travelled distance by tadpoles (/baseline), mean” value (Sup. Fig. 5B, 550 nm (1), mean of 16 wells) was 0.561. The “Normalized travelled distance by tadpoles (/baseline), single well” value (Sup. Fig. 5B, 550 nm (2), individual wells) was 0.073 and 0.057 and 0.075 and 0.047 and 0.119 and 0.187 and 0.194 and 0.072 and 0.283 and 0.438 and 0.540 and 0.500 and 0.411, the “Normalized travelled distance by tadpoles (/baseline), mean” value (Sup. Fig. 5B, 550 nm (2), mean of 16 wells) was 0.274 and the “Normalized travelled distance by tadpoles (/baseline), single well” value (Sup. Fig. 5B, dark, individual wells (each well is the mean of 3 tadpole)) was 0.095 and 0.145 and 0.255 and 0.231 and 0.246 and 0.190 and 0.129 and 0.073 and 0.384 and 0.405 and 0.424 and 0.476 and 0.614. For the same compound, the “Normalized travelled distance by tadpoles (/baseline), mean” value (Sup. Fig. 5B, dark, mean of 16 wells (each well is the mean of 3 tadpole)) was 0.393, the “Normalized travelled distance by tadpoles (/baseline)” value (Sup. Fig. 5B, dark) was 0.643 and 0.955 and 1.031 and the “Normalized travelled distance by tadpoles (/baeline/control), single well” value (Sup. Fig. 5C, 460 nm (1), individual wells) was 1.914 and 1.376 and 8.550 and 2.480 and 4.315 and 7.810 and 5.706 and 5.046 and 11.224 and 1.065 and 13.799 and 8.327 and 1.491. The “Normalized travelled distance by tadpoles (/baeline/control), mean” value (Sup. Fig. 5C, 460 nm (1), mean of 17 wells) was 6.279, the “Normalized travelled distance by tadpoles (/baeline/control), single well” value (Sup. Fig. 5C, 460 nm (2), individual wells) was 2.036 and 1.506 and 10.137 and 2.268 and 4.306 and 11.041 and 6.016 and 15.287 and 9.339 and 1.297 and 11.889 and 4.687 and 3.893 and the “Normalized travelled distance by tadpoles (/baeline/control), mean” value (Sup. Fig. 5C, 460 nm (2), mean of 17 wells) was 6.476. For the same compound, the “Normalized travelled distance by tadpoles (/baseline)” value (Sup. Fig. 5C, 460 nm (2)) was 8.083 and 4.823 and 6.568 and 6.920, the “Normalized travelled distance by tadpoles (/baeline/control), single well” value (Sup. Fig. 5C, 550 nm (1), individual wells) was 0.384 and 0.350 and 1.155 and 0.578 and 0.301 and 1.159 and 2.310 and 0.844 and 0.446 and 0.287 and 2.947 and 0.796 and 0.259 and the “Normalized travelled distance by tadpoles (/baeline/control), mean” value (Sup. Fig. 5C, 550 nm (1), mean of 17 wells) was 0.899. The “Normalized travelled distance by tadpoles (/baeline/control), single well” value (Sup. Fig. 5C, 550 nm (2), individual wells) was 0.201 and 0.140 and 0.631 and 0.384 and 0.385 and 0.939 and 0.448 and 0.727 and 1.019 and 0.143 and 0.892 and 1.756 and 0.609, the “Normalized travelled distance by tadpoles (/baeline/control), mean” value (Sup. Fig. 5C, 550 nm (2), mean of 17 wells) was 0.702 and the “Normalized travelled distance by tadpoles (/baseline)” value (Sup. Fig. 5C, 550 nm (2)) was 1.231 and 0.815 and 0.780 and 0.842. For the same compound, the “Normalized travelled distance by tadpoles (/baeline/control), single well” value (Sup. Fig. 5C, dark, individual wells (each well is the mean of 3 tadpole)) was 0.118 and 0.080 and 0.825 and 0.228 and 0.352 and 1.330 and 0.587 and 0.877 and 0.773 and 0.144 and 0.553 and 0.717 and 0.589, the “Normalized travelled distance by tadpoles (/baeline/control), mean” value (Sup. Fig. 5C, dark, mean of 17 wells (each well is the mean of 3 tadpole)) was 0.520 and the “Normalized travelled distance by tadpoles (/baseline)” value (Sup. Fig. 5C, dark) was 0.453 and 0.357 and 0.524 and 0.331.

Source: PMC11413854, “Reversible Control of Native GluN2B-Containing NMDA Receptors with Visible Light” (ACS Chemical Neuroscience, 2024)
